Tested on: HBV (2.2.15 cells)
Experiment: Antiviral activity in 2.2.15 cells: reduction of viral product accumulation (qPCR of lysates, HBsAg or HBeAg ELISA)
Type: cell-based, hepatitis B virus (HBV)
Details: Hepatitis B virus, 120 h, day 5 post treatment, 50% reduction of viral product accumulation in lysates or supernatants vs no drug controls, readout (qPCR, HBsAg, HBeAg) not specified
Procedure, shortened: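 HBV-producing 2.2.15 cells, 35,000/well, treated with 5-fold serial compound dilutions at 0.5% final DMSO for 5 days. Lysate HBV DNA by qPCR or supernatant HBsAg/HBeAg by ELISA; EC50 is 50% reduction versus no-drug control, binned A<0.1 μM, B 0.1-1 μM, C>1 μM.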

Row | SMILES | EC50
1 | COCCCOc1cc2c(cc1C1=COCCC1)-c1cc(=O)c(C(=O)O)cn1[C@H](C(C)(C)C)C2 [Example 42, (S)-6-(tert-butyl)-10-(3,4-dihydro-2H-pyran-5-yl)-9-(3-methoxypropoxy)-2-oxo-6,7-dihydro-2H-pyrido[2,1-a]isoquinoline-3-carboxylic Acid] | < 100 nM
2 | CC(C)[C@@H]1Cc2c(cc(-c3ccccc3F)c3c2CCO3)-c2cc(=O)c(C(=O)O)cn21 [Example 108, (S)-12-(2-fluorophenyl)-5-isopropyl-9-oxo-2,3,4,9-tetrahydro-5H-furo[3,2-f]pyrido[2,1-a]isoquinoline-8-carboxylic Acid] | < 100 nM
3 | COCCCOc1cc2c(cc1-n1ccc3ccccc31)-c1cc(=O)c(C(=O)O)cn1[C@H](C(C)(C)C)C2 [Example 52, (S)-6-(tert-butyl)-10-(1H-indol-1-yl)-9-(3-methoxypropoxy)-2-oxo-6,7-dihydro-2H-pyrido[2,1-a]isoquinoline-3-carboxylic Acid] | < 100 nM
4 | CC(C)(C)[C@@H]1Cc2c(cc(N3CCCC3)c3c2CCO3)-c2cc(=O)c(C(=O)O)cn21 [Example 88, (S)-5-(tert-butyl)-9-oxo-12-(pyrrolidin-1-yl)-2,3,4,9-tetrahydro-5H-furo[3,2-f]pyrido[2,1-a]isoquinoline-8-carboxylic Acid] | < 100 nM
5 | CC(C)(C)[C@@H]1Cc2c(cc(-c3ccc(C(F)(F)F)cc3)c3c2CCO3)-c2cc(=O)c(C(=O)O)cn21 [Example 80, (S)-5-(tert-butyl)-9-oxo-12-(4-(trifluoromethyl)phenyl)-2,3,4,9-tetrahydro-5H-furo[3,2-f]pyrido[2,1-a]isoquinoline-8-carboxylic Acid] | > 1000 nM
6 | COc1ccc(-c2cc3c(c4c2OCC4)C[C@@H](C(C)(C)C)n2cc(C(=O)O)c(=O)cc2-3)cc1 [Example 78, (S)-5-(tert-butyl)-12-(4-methoxyphenyl)-9-oxo-2,3,4,9-tetrahydro-5H-furo[3,2-f]pyrido[2,1-a]isoquinoline-8-carboxylic Acid] | < 100 nM
7 | COCCCOc1cc2c(cc1-c1cnn(C)c1)-c1cc(=O)c(C(=O)O)cn1[C@H]1[C@@H]2COC1(C)C [Example 123, (3aS,12bR)-11-(3-methoxypropoxy)-3,3-dimethyl-10-(1-methyl-1H-pyrazol-4-yl)-7-oxo-3,3a,7,12b-tetrahydro-1H-furo[3,4-c]pyrido[2,1-a]isoquinoline-6-carboxylic Acid] | < 100 nM
8 | CC(C)(C)[C@@H]1Cc2c(cc(-c3ccccc3Cl)c3c2CCO3)-c2cc(=O)c(C(=O)O)cn21 [Example 76, (S)-5-(tert-butyl)-12-(2-chlorophenyl)-9-oxo-2,3,4,9-tetrahydro-5H-furo[3,2-f]pyrido[2,1-a]isoquinoline-8-carboxylic Acid] | < 100 nM
9 | CC(C)[C@@H]1Cc2c(cc(-c3ccc(F)cc3)c3c2CCO3)-c2cc(=O)c(C(=O)O)cn21 [Example 89, (S)-12-(4-fluorophenyl)-5-isopropyl-9-oxo-2,3,4,9-tetrahydro-5H-furo[3,2-f]pyrido[2,1-a]isoquinoline-8-carboxylic Acid] | < 100 nM
10 | COCCCOc1cc2c(cc1N1CCC(F)(F)C1)-c1cc(=O)c(C(=O)O)cn1[C@H](C(C)(C)C)C2 [Example 54, (S)-6-(tert-butyl)-10-(3,3-difluoropyrrolidin-1-yl)-9-(3-methoxypropoxy)-2-oxo-6,7-dihydro-2H-pyrido[2,1-a]isoquinoline-3-carboxylic Acid] | 100 to 1000 nM
11 | CC(C)[C@@H]1Cc2c(cc(-c3cccc(F)c3)c3c2CCO3)-c2cc(=O)c(C(=O)O)cn21 [Example 107, (S)-12-(3-fluorophenyl)-5-isopropyl-9-oxo-2,3,4,9-tetrahydro-5H-furo[3,2-f]pyrido[2,1-a]isoquinoline-8-carboxylic Acid] | < 100 nM
12 | CC(C)(C)[C@@H]1Cc2c(cc(-c3ccco3)c3c2CCO3)-c2cc(=O)c(C(=O)O)cn21 [Example 72, (S)-5-(tert-butyl)-12-(furan-2-yl)-9-oxo-2,3,4,9-tetrahydro-5H-furo[3,2-f]pyrido[2,1-a]isoquinoline-8-carboxylic Acid] | < 100 nM
13 | CC(C)[C@@H]1Cc2c(cc(-c3ccncc3)c3c2CCO3)-c2cc(=O)c(C(=O)O)cn21 [Example 104, (S)-5-isopropyl-9-oxo-12-(pyridin-4-yl)-2,3,4,9-tetrahydro-5H-furo[3,2-f]pyrido[2,1-a]isoquinoline-8-carboxylic Acid] | < 100 nM
14 | COCCCOc1cc2c(cc1-c1ccc3oncc3c1)-c1cc(=O)c(C(=O)O)cn1[C@H](C(C)(C)C)C2 [Example 47, (S)-10-(benzo[d]isoxazol-5-yl)-6-(tert-butyl)-9-(3-methoxypropoxy)-2-oxo-6,7-dihydro-2H-pyrido[2,1-a]isoquinoline-3-carboxylic Acid] | > 1000 nM
15 | COCCCOc1cc2c(cc1-c1cccc(OC(F)(F)F)c1)-c1cc(=O)c(C(=O)O)cn1[C@H](C(C)(C)C)C2 [Example 57, (S)-6-(tert-butyl)-9-(3-methoxypropoxy)-2-oxo-10-(3-(trifluoromethoxy)phenyl)-6,7-dihydro-2H-pyrido[2,1-a]isoquinoline-3-carboxylic Acid] | > 1000 nM
16 | CC(C)[C@@H]1Cc2c(cc(-c3cnn(C)c3)c3c2CCO3)-c2cc(=O)c(C(=O)O)cn21 [Example 97, (S)-5-isopropyl-12-(1-methyl-1H-pyrazol-4-yl)-9-oxo-2,3,4,9-tetrahydro-5H-furo[3,2-f]pyrido[2,1-a]isoquinoline-8-carboxylic Acid] | < 100 nM
17 | COCCCOc1cc2c(cc1-c1ccc(OC(F)F)cc1)-c1cc(=O)c(C(=O)O)cn1[C@H](C(C)(C)C)C2 [Example 56, (S)-6-(tert-butyl)-10-(4-(difluoromethoxy)phenyl)-9-(3-methoxypropoxy)-2-oxo-6,7-dihydro-2H-pyrido[2,1-a]isoquinoline-3-carboxylic Acid] | < 100 nM
18 | CC(C)[C@@H]1Cc2c(cc(-c3cccc(C(F)(F)F)c3)c3c2CCO3)-c2cc(=O)c(C(=O)O)cn21 [Example 95, (S)-5-isopropyl-9-oxo-12-(3-(trifluoromethyl)phenyl)-2,3,4,9-tetrahydro-5H-furo[3,2-f]pyrido[2,1-a]isoquinoline-8-carboxylic Acid] | > 1000 nM
19 | COCCCOc1cc2c(cc1-c1nnc(C)o1)-c1cc(=O)c(C(=O)O)cn1[C@H](C(C)(C)C)C2 [Example 49, (S)-6-(tert-butyl)-9-(3-methoxypropoxy)-10-(5-methyl-1,3,4-oxadiazol-2-yl)-2-oxo-6,7-dihydro-2H-pyrido[2,1-a]isoquinoline-3-carboxylic Acid] | < 100 nM
20 | COCCCOc1cc2c(cc1-c1ccc(Cl)cc1)-c1cc(=O)c(C(=O)O)cn1[C@H]1[C@@H]2COC1(C)C [Example 137, (3aS,12bR)-10-(4-chlorophenyl)-11-(3-methoxypropoxy)-3,3-dimethyl-7-oxo-3,3a,7,12b-tetrahydro-1H-furo[3,4-c]pyrido[2,1-a]isoquinoline-6-carboxylic Acid] | > 1000 nM
21 | COCCCOc1cc2c(cc1-c1cccs1)-c1cc(=O)c(C(=O)O)cn1[C@H]1[C@@H]2COC1(C)C [Example 142, (3aS,12bR)-11-(3-methoxypropoxy)-3,3-dimethyl-7-oxo-10-(thiophen-2-yl)-3,3a,7,12b-tetrahydro-1H-furo[3,4-c]pyrido[2,1-a]isoquinoline-6-carboxylic Acid] | < 100 nM
22 | COCCCOc1cc2c(cc1-c1ccccc1F)-c1cc(=O)c(C(=O)O)cn1[C@H]1[C@@H]2COC1(C)C [Example 136, (3aS,12bR)-10-(2-fluorophenyl)-11-(3-methoxypropoxy)-3,3-dimethyl-7-oxo-3,3a,7,12b-tetrahydro-1H-furo[3,4-c]pyrido[2,1-a]isoquinoline-6-carboxylic Acid] | < 100 nM
23 | CC(C)[C@@H]1Cc2c(cc(-c3cccs3)c3c2CCO3)-c2cc(=O)c(C(=O)O)cn21 [Example 99, (S)-5-isopropyl-9-oxo-12-(thiophen-2-yl)-2,3,4,9-tetrahydro-5H-furo[3,2-f]pyrido[2,1-a]isoquinoline-8-carboxylic Acid] | < 100 nM
24 | COCCCOc1cc2c(cc1C1CCCCO1)-c1cc(=O)c(C(=O)O)cn1[C@H](C(C)(C)C)C2 (stereo partly drawn) [Example 41, (6S)-6-(tert-butyl)-9-(3-methoxypropoxy)-2-oxo-10-(tetrahydro-2H-pyran-2-yl)-6,7-dihydro-2H-pyrido[2,1-a]isoquinoline-3-carboxylic Acid] | < 100 nM
25 | CC(C)(C)[C@@H]1Cc2ccc(N3CC(F)(F)C3)cc2-c2cc(=O)c(C(=O)O)cn21 [Example 154, (S)-6-(tert-butyl)-10-(3,3-difluoroazetidin-1-yl)-2-oxo-6,7-dihydro-2H-pyrido[2,1-a]isoquinoline-3-carboxylic Acid] | > 1000 nM
26 | COCCCOc1cc2c(cc1-c1ccoc1)-c1cc(=O)c(C(=O)O)cn1[C@H]1[C@@H]2COC1(C)C [Example 126, (3aS,12bR)-10-(furan-3-yl)-11-(3-methoxypropoxy)-3,3-dimethyl-7-oxo-3,3a,7,12b-tetrahydro-1H-furo[3,4-c]pyrido[2,1-a]isoquinoline-6-carboxylic Acid] | < 100 nM
27 | CC(C)[C@@H]1Cc2c(cc(-c3cccc(Cl)c3)c3c2CCO3)-c2cc(=O)c(C(=O)O)cn21 [Example 112, (S)-12-(3-chlorophenyl)-5-isopropyl-9-oxo-2,3,4,9-tetrahydro-5H-furo[3,2-f]pyrido[2,1-a]isoquinoline-8-carboxylic Acid] | > 1000 nM
28 | CC(C)(C)[C@@H]1Cc2c(cc(C3COC3)c3c2CCO3)-c2cc(=O)c(C(=O)O)cn21 [Example 131, (S)-5-(tert-butyl)-12-(oxetan-3-yl)-9-oxo-2,3,4,9-tetrahydro-5H-furo[3,2-f]pyrido[2,1-a]isoquinoline-8-carboxylic Acid] | < 100 nM
29 | COCCCOc1cc2c(cc1-c1ccc3c(c1)OCCC3)-c1cc(=O)c(C(=O)O)cn1[C@H](C(C)(C)C)C2 [Example 39, (S)-6-(tert-butyl)-10-(chroman-7-yl)-9-(3-methoxypropoxy)-2-oxo-6,7-dihydro-2H-pyrido[2,1-a]isoquinoline-3-carboxylic Acid] | > 1000 nM
